According to BigSolDB 2.1:

O=c1[nH]cc(F)c(=O)[nH]1
solubility (mole fraction) (in ethanol, 293.15 K): 0.00246 | solubility (mole fraction) (in ethanol, 298.15 K): 0.00277 | solubility (mole fraction) (in ethanol, 303.15 K): 0.00307 | solubility (mole fraction) (in ethanol, 308.15 K): 0.0034 | solubility (mole fraction) (in ethanol, 313.15 K): 0.00382 | solubility (mole fraction) (in ethanol, 318.15 K): 0.00411 | solubility (mole fraction) (in ethanol, 323.15 K): 0.00455 | solubility (mole fraction) (in water, 293.15 K): 0.00155 | solubility (mole fraction) (in water, 298.15 K): 0.00176 | solubility (mole fraction) (in water, 303.15 K): 0.00195 | solubility (mole fraction) (in water, 308.15 K): 0.00214 | solubility (mole fraction) (in water, 313.15 K): 0.00241 | solubility (mole fraction) (in water, 318.15 K): 0.00278 | solubility (mole fraction) (in water, 323.15 K): 0.00312
